US9884854B2, “N-[(pyrimidinylamino)propanyl]-and N[(pyrazinylamino)proppanyl]arylcarboxamides” (Boehringer Ingelheim International GmbH, priority 2016, dated 2018)

Biological target: T1, human Orexin 1 receptor (Homo sapiens, UniProt O43613)
T1 construct: stably expressing the full-length human Orexin 1 receptor and the aequorin photoprotein; expressed in transfected cells; host or cells: CHO-K1 (CHO-K1/hOx1), co-expressing aequorin
T1 sequence (O43613 1-425): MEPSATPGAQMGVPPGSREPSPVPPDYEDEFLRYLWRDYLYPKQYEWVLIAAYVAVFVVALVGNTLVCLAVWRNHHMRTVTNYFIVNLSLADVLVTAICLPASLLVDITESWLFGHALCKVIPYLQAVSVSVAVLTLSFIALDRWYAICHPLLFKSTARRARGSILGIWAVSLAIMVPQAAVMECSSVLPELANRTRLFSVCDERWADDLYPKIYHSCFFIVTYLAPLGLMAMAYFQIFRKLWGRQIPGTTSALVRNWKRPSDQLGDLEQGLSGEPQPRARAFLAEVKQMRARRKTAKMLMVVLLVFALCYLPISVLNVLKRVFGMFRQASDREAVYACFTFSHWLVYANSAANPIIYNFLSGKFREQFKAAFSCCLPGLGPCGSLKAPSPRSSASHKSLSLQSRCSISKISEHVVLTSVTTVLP
Assay: Assay A: OX1R IP1 (in vitro OX1R potency)
Format: cell-based
Settings: for Kb: 50 nM Orexin A concentration
Source text: Activation of the orexin receptors expressed in cell lines results in an increase in intracellular IP3 concentration. IP1, a downstream metabolite of IP3, accumulates in cells following receptor activation and is stable in the presence of LiCl. Using Homogeneous Time-Resolved Fluorescence technology with Lumi4-Tb cryptate (commercially available from Cisbio Bioassay.) and a suitable fluorescence plate reader. […] This technique is used to characterize pharmacological modification of the orexin receptors.
A. In Vitro Testing of OX1R Potency: OX1R IP1
IP1 measurements are performed in CHO-K1 cells stably expressing the full-length human Orexin 1 receptor and the aequorin photoprotein. Cells are cultivated in Ham's nutrient mixture F12 medium with 10% fetal calf serum, in a 37° C., 95% humidity and 5% CO2 incubator. The CHO-K1/hOx1 cell mass is expanded to larger cell numbers. The cells are obtained as frozen cells in cryo-vials and stored until use at −150° C. […] In preparation for the assay, 24 hours before the assay, the cells are thawed at 37° C. and immediately diluted with cell culture medium. After centrifugation, the cell pellet is re-suspended in medium and then distributed into the assay plates with a density of 10000 cells/25 μL per well. The plates are incubated for one hour at room temperature to reduce edge effects before they are incubated for 24 hours at 37° C./5% CO2. Compounds are prepared by an 8-point serial dilution in DMSO and a final dilution step into assay buffer (HBSS with 20 mM HEPES, 0.1% BSA and 50 mM LiCl, pH 7.4) to ensure a final DMSO concentration of 1% in the assay.
On the day of the assay, cells in the plate are washed twice with 60 μL assay buffer (20 μL buffer remained in the wells after washing), followed by adding 5 μL per well of compounds diluted in assay buffer. After 15 minutes of incubation at room temperature 5 μL per well of Orexin A peptide (final concentration: 0.5 nM, and/or 50 nM) dissolved in assay buffer is added to the assay plate. The assay plate is incubated for 60 minutes at 37° C. Then 5 μl per well of Anti-IP1-Cryptate Tb solution and 5 μl per well of IP1-d2 dilution are added and the plate is incubated for a further 60 minutes light protected at room temperature. […] 8-point four parametric non-linear curve fitting and determination of IC50 values and Hill slopes is performed using a regular analysis software e.g. AssayExplorer (Accelrys).
Kb values from Assay A (OX1R) and Assay B (OX2R) can then provide a selectivity ratio which is independent of the agonist (Orexin A) concentration.

CCN(C(=O)c1ccccc1-n1nccn1)[C@@H](C)CNc1ncc(C(F)(F)F)cn1 [Example 1]
OX2R Kb/OX1R Kb: 404
Kb: 0.048 nM

CCN(C(=O)c1nc(C)ccc1-n1nccn1)[C@@H](C)CNc1ncc(C(F)(F)F)cn1 [Example 9]
OX2R Kb/OX1R Kb: 310
Kb: 0.106 nM
higher potency (versus Example 46 in WO2016/034882): > 10 fold
higher potency (versus Example 73 in WO2016/034882): approximately 3 fold

CCN(C(=O)c1cnc(C)nc1-c1ccccc1)[C@@H](C)CNc1ncc(C(F)(F)F)cn1 [Example 17]
OX2R Kb/OX1R Kb: 2500
Kb: 0.0216 nM

CCN(C(=O)c1cccc(F)c1-n1nccn1)[C@@H](C)CNc1ncc(C(F)(F)F)cn1 [Example 18]
OX2R Kb/OX1R Kb: 352
Kb: 0.0512 nM
